From US20250034194A1, “INHIBITORS OF ABNORMAL PHOSPHORYLATION AND TAU PROTEIN AGGREGATION” (UNIVERSITE DE PICARDIE JULES VERNE, priority 2021, published 2025)

Legend:
[1] = molecular target: T1, tau protein (4R2N, 441 amino acids) (Homo sapiens, UniProt P10636); experiment: In vitro abnormal tau phosphorylation by GSK3β, competition with heparin (western blot); assay type: biochemical; conditions: for capacity to protect tau from its abnormal phosphorylation induced by heparin / ability to compete with heparin for abnormal tau phosphorylation by GSK3β: molecule 60 μg/mL vs heparin 12 μg/mL; for capacity to protect tau from its abnormal phosphorylation induced by heparin: AT270 antibody; for ability to compete with heparin for abnormal tau phosphorylation by GSK3β: 1.5 to 6 h of reaction, AT270, Ser199/202
T1 construct: purchased Millipore (tau); Promega (GSK3β)
Excerpt: Phosphorylation of tau protein is the most common post-translational modification to regulate tau activity and functions. The longest tau isoform (4R2N, 441 amino acids) containing 85 potential phosphorylation sites was used. In vitro phosphorylation of the tau protein is done by induction, on the one hand, (FIG. 5) and, on the other hand, according to a competition process between the LG2A molecules and heparin, conventionally used to induce abnormal tau phosphorylation in vitro (FIGS. 3, 4, 6, 7, 8, 9 and 10).
For abnormal tau phosphorylation tests, GSK3p, a kinase centrally involved in this process in the brains of subjects with Alzheimer's disease (AD), was used. Analysis of tau phosphorylation by GSK3b at sites characteristic of AD is possible by the western blot technique using specific antibodies that recognize abnormally phosphorylated sites in the brain or cerebrospinal fluid of AD subjects, such as the AT270 antibody which recognizes threonine 181 (Thr181), the PHF1 antibody which recognizes serines 396 and 404 (Ser396/Ser404), and the AT8 antibody, which recognizes the Ser199/Ser202/Thr205 site.
By competition: The tau protein (40 μg/mL) is phosphorylated by the GSK3β enzyme at 4 ng/mL (Promega) in the presence of ATP (Sigma-Aldrich) at 48 μM and protease inhibitors (Sigma-Aldrich, 1/100), in the buffer mentioned above. The ability of the LG2A molecules (60 μg/mL) to compete with heparin (12 μg/mL; Sigma-Aldrich) is evaluated. Thus if the signal in the presence of the molecules is less than that obtained with heparin alone, the molecules are then defined as “protectors” from abnormal tau phosphorylation.
In both systems (induction or competition), the tau protein is incubated at 37° C. with stirring in the presence of the different elements presented above. The reaction kinetics are monitored by taking 8 μL of the samples at 1.5 h, 3 h and 6 h of incubation. Loading buffer (Euromedex) and β-mercaptoethanol (Sigma-Aldrich) are added to each sample. The samples are then stored at −20° C. until analysis by western blot.
After denaturation of the samples by heating at 95° C. for 5 minutes, the samples are deposited simultaneously with the molecular weight marker (Precision Plus Protein™ Dual Color Standards; BIO-RAD) on a 10% acrylamide gel placed in an electrophoresis tank containing migration buffer (0.25 M Tris; 1.6 M Glycine; […]; pH 8.6).
The controls used for this phosphorylation experiment followed by western blot are: • the “native tau” protein, that is to say the non-phosphorylated tau protein. • the tau protein phosphorylated by GSK3b alone in the absence of heparin. • the tau protein phosphorylated in the presence of heparin, denoted “tau+heparin”. • the “external standard” corresponding to the tau protein phosphorylated in the presence of heparin for 3 h. This standard is carried out in an experiment independently of the phosphorylation experiments in the presence of LG2A compounds. It ensures that the western blot is carried out correctly.
Then the membrane is incubated overnight with stirring at +4° C. in a solution of PBS, 0.1% Tween and 1% milk containing the primary antibody specific for tau phosphorylation sites (AT270, ThermoScientific or S199-202, Millipore).
After incubation of the PVDF membrane in the chosen primary antibody, a succession of 3 washes of 5 minutes of the membrane is carried out in PBS and 0.1% Tween with stirring and the membrane is incubated for 1 h with stirring at room temperature in a solution of 1×PBS, 0.1% Tween and 1% milk containing the diluted secondary antibody (Jackson Immuno-Research).

[2] = tested on: tau phosphorylation (S262 site) in SH-SY5Y cells; experiment: In cellulo tau phosphorylation test in the SH-SY5Y line (H2O2 stress induction); assay type: cell-based; conditions: 24 hours, then H2O2
Procedure: The tau phosphorylation induction model on the SH-SY5Y cell line described in the Gly-CRRET laboratory article was used here (Sepulveda-Diaz et al., 2015).
In short, SH-SY5Y cells are seeded in 6-well plates and differentiated using retinoic acid (10 μM, Sigma Aldrich) for 5 days. On day 6, the cells are placed in the presence of the Mal16diS and Mal18diS molecules at different concentrations (1, 10 or 100 μg/mL), in a final volume of 2 mL simultaneously with a well not receiving molecules. After 24 hours, the molecules are removed and the stress inducer (H2O2, Sigma Aldrich) is added to the cell medium for 30 minutes. The cells are then rinsed with 1×PBS then lysed and recovered in RIPA buffer (Thermo Fisher). The protein extracts from the cells (10 μg) are then analysed by western blot according to the same procedure described above.
The tau phosphorylation site studied here is the S262 site (Thermo Fisher), normalized to the expression of the GAPDH protein (Sigma Aldrich). The bands are quantified using the Odyssey software of the LI-COR device allowing the p-tau/GAPDH ratio to be calculated for each of the conditions. The ratio obtained for each concentration of molecule is then expressed as a percentage of the ratio obtained for the control cells, i.e., not treated by the molecules. Thus a value less than 100% corresponds to protection provided by the molecules in this cellular model of tau phosphorylation induction.
The experiment was repeated at least 4 times for each molecule dose for the “Mal16diS” and “Mal18diS” molecules and at least twice for the “Cell16diS” and “Lac16diS” molecules. The mean and standard deviation of the replicates are shown in FIGS. 13 to 16; each of the values obtained for each dose is compared to that of the control without addition of molecule by means of a t-test. Statistical differences with p-value <0.05 and <0.001 are represented by “*” and “***” respectively.

SH-SY5Y = experiment: Cytotoxicity study, MTT test; assay type: cell-based; conditions: differentiated SH-SY5Y; 0.1 to 100 μg/mL; 24 hours
Procedure: In order to evaluate the level of toxicity of these molecules according to their concentration in the cellular environment, an MTT test (3-(4,5-dimethylthiazol-2-yl)-2,5-diphenyl tetrazolium bromide) is carried out (FIGS. 11 and 12) upstream of the phosphorylation tests in cellulo.
SH-SY5Y (ATCC-CRL-2266) are developed in Dulbecco's Modified Eagle Complete Medium (DMEM-GlutaMAX™, Life Technologies) with 10% foetal bovine serum (FBS) and 1% penicillin/streptomycin in an incubator at 37° C. with 5% CO2.
For this, the SH-SY5Y cells are cultured in a 6-well plate at a cell density of 200,000 cells/well and are differentiated using retinoic acid (10 μM, Sigma Aldrich) for 5 days. On day 6, the cells are brought into contact with LG2A molecules at different concentrations (0.1, 1, 10 or 100 μg/mL), in a final volume of 2 mL. After 24 hours, MTT (5 μg/mL; Sigma-Aldrich) is added to the cell medium for 2 hours at 37° C. Then the medium is removed and 200 μL of pure dimethylsulfoxide (DMSO, Sigma-Aldrich) are added to each well. The entire contents of each well are transferred to a 96-well plate and the absorbance is measured at 562 nm using the Infinite M1000 spectrofluorometer (Tecan).

[3] = molecular target: T1, tau protein (4R2N, 441 amino acids); conditions: GSK3β; FIG. 2, Sepulveda-Diaz et al, 2015; cited from earlier work

T1 sequence (P10636 1-441 isoform P10636-8): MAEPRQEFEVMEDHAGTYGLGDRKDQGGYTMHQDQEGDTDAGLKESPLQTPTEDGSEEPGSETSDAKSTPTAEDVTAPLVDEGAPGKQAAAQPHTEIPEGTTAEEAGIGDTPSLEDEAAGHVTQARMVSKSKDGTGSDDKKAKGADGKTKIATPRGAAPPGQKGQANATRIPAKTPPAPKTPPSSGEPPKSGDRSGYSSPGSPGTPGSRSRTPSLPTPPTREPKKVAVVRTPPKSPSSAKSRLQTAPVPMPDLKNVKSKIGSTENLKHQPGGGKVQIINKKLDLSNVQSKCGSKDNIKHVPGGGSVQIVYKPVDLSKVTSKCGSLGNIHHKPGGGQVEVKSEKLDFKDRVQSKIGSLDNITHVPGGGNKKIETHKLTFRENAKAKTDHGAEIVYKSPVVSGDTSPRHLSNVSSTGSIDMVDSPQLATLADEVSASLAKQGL

| Compound | capacity to protect tau from its abnormal phosphorylation induced by heparin [1] | ability to compete with heparin for abnormal tau phosphorylation by GSK3β [1] | also measured |
| --- | --- | --- | --- |
| CCCCCCCCCCCCCCCCNC(=O)C(OS(=O)(=O)[O-])C(OS(=O)(=O)[O-])C(OC1OC(COS(=O)(=O)[O-])C(OS(=O)(=O)[O-])C(OS(=O)(=O)[O-])C1OS(=O)(=O)[O-])C(COS(=O)(=O)[O-])OS(=O)(=O)[O-].[Na+].[Na+].[Na+].[Na+].[Na+].[Na+].[Na+].[Na+] [Mal16perS, N-Hexadecyl-Per-O-Sulfo-D-Maltobioamide Sodium Salt] | retains its ability to protect tau |  |  |
| CCCCCCCCCCCCCCCCCCNC(=O)[C@H](O)[C@@H](O)[C@H](O[C@H]1OC(COS(=O)(=O)[O-])[C@@H](O)C(O)[C@@H]1O)[C@H](O)COS(=O)(=O)[O-].[Na+].[Na+] (stereo partly drawn) [Mal18diS, N-Octadecyl-6,6′-Di-O-Sulfo-D-Maltobionamide Disodium] |  | total competition with heparin | abnormal phosphorylation of tau (p-tau) revealed by AT270 and Ser199/202 antibodies ([1]; in presence of heparin, after 3 h of reaction): inhibited; reduction in tau phosphorylation (S262, p-tau/GAPDH) compared to untreated cells ([2]; 1 μg/mL): ~30%; reduction in tau phosphorylation (S262, p-tau/GAPDH) compared to untreated cells ([2]; 10 μg/mL): ~30%; reduction in tau phosphorylation (S262, p-tau/GAPDH) compared to untreated cells ([2]; 100 μg/mL): up to 60%; cytotoxicity (MTT) (SH-SY5Y): not cytotoxic |
| CCCCCCCCCCCCCCNC(=O)[C@H](O)[C@@H](O)[C@H](O)[C@H](O)CO[C@H]1O[C@H](COS(=O)(=O)[O-])[C@H](O)[C@H](O)[C@H]1O.[Na+] [Mel14monoS, N-Tetradecyl-6′-O-Sulfo-Melibioamide Sodium] |  | do not compete with heparin |  |
| CCCCCCCCCCCCCCCCNC(=O)[C@H](O)[C@@H](O)[C@H](O)[C@H](O)CO[C@H]1O[C@H](COS(=O)(=O)[O-])[C@H](O)[C@H](O)[C@H]1O.[Na+] [Mel16monoS, N-Hexadecyl-6′-O-Sulfo-Melibioamide Sodium] |  | do not compete with heparin |  |
| CCCCCCCCCCCCCCCCCCNC(=O)C(O)C(O)C(O)C(O)COC1OC(COS(=O)(=O)[O-])C(O)C(O)C1O.[Na+] (centres unmarked) [Mel18monoS, N-Octadecyl-6′-O-Sulfo-Melibioamide Sodium] |  | do not compete with heparin |  |
| N-Hexadecyl-6 or 6′-O-Sulfo-D-Maltobioamide Sodium [Mal16monoS] | slight loss of the protective capacity |  |  |
| N-Hexadecyl-6,6′-Di-O-Sulfo-D-Cellobioamide Disodium [Cell16diS] |  | total competition with heparin | reduction in tau phosphorylation (S262, p-tau/GAPDH) compared to untreated cells ([2]; 1 μg/mL): approximately 34%; reduction in tau phosphorylation (S262, p-tau/GAPDH) compared to untreated cells ([2]; 10 μg/mL): 17%; reduction in tau phosphorylation (S262, p-tau/GAPDH) compared to untreated cells ([2]; 100 μg/mL): 20% |
| N-Hexadecyl-6,6′-Di-O-Sulfo-Lactobioamide Disodium [Lac16diS] |  | total competition with heparin | reduction in tau phosphorylation (S262, p-tau/GAPDH) compared to untreated cells ([2]; 1 μg/mL): 25%; reduction in tau phosphorylation (S262, p-tau/GAPDH) compared to untreated cells ([2]; 100 μg/mL): 54% |
| N-Hexadecyl-D-Glucuronyl-(α-1,4)-D-Xyluronamide [Mal16diOx] | less effective than disulphated maltobionamide compounds with the same chain length |  |  |
| N-Hexadecyl-Tri-O-Sulfo-D-Maltobioamide Trisodium [Mal16triS] | maintenance of this capacity to protect tau |  |  |
| N-Octadecyl-6 or 6′-O-Sulfo-D-Maltobioamide Sodium [Mal18monoS] | slight loss of the protective capacity |  |  |
| N-Octadecyl-6,6′-Di-O-Sulfo-D-Cellobioamide Disodium [Cell18diS] |  | total competition with heparin |  |
| N-Octadecyl-6,6′-Di-O-Sulfo-Lactobioamide Disodium [Lac18diS] |  | total competition with heparin |  |
| N-Octadecyl-D-Glucuronyl-(α-1,4)-D-Xyluronamide [Mal18diOx] |  | does not compete with heparin |  |
| N-Octadecyl-Tri-O-Sulfo-D-Maltobioamide Trisodium [Mal18triS] | maintenance of this capacity to protect tau |  |  |
| heparin |  |  | phosphorylation of tau on sites characteristic of AD in the presence of heparin [3]: phosphorylation at all tau sites takes place |
